Laboratory results from publication PMC11823630, “In vitro potentiation of tetracyclines in Pseudomonas aeruginosa by RW01, a new cyclic peptide” (Antimicrobial Agents and Chemotherapy, 2024).
In brackets after ≈: the same amount, converted by molar mass.

Experiments:
[1] = tested on: PAO1 mutant MIN8_3, pilZ(nt18InsT); test: MIC, Sensititre custom plate; type: cell-based; conditions: Pseudomonas aeruginosa, PAO1, read-out: MIC, Sensititre
Procedure: (§1) Selection of resistant mutants was performed for minocycline with and without RW01 in three independent replicates for wild-type P. aeruginosa reference strain PAO1. Tubes containing Mueller-Hinton broth (MHB) were inoculated and incubated for 24 h at 37°C. Afterward, 1/100 dilution of each tube was incubated at 37°C in MHB to late-exponential growth phase, measured by spectrophotometry at OD600. […] A control plate without antibiotic was included as inoculum control. After overnight incubation, colony counting of each treatment was performed to analyze the generation of resistant population. The mutant prevention concentration (MPC) was defined as the lowest concentration of antibiotic yielding no growth of resistant mutants. Selected mutants were checked for susceptibility profiles by using a Sensititre custom plate (Thermo Fisher Scientific, Massachusetts, USA) for Gram-negative bacteria, following the manufacturer’s instructions.

[2] = tested on: PAO1 mutant MIN8_2, pilZ(nt18InsT); test: MIC, Sensititre custom plate; type: cell-based; conditions: Pseudomonas aeruginosa, PAO1, read-out: MIC, Sensititre
Procedure: as §1

[3] = tested on: PAO1 mutant MIN4_RW01_4, pmrB(Y98N); test: MIC, Sensititre custom plate; type: cell-based; conditions: Pseudomonas aeruginosa, PAO1, read-out: MIC, Sensititre
Procedure: as §1

[4] = tested on: PAO1 mutant MIN2_RW01_4, pmrB(M292T); test: MIC, Sensititre custom plate; type: cell-based; conditions: Pseudomonas aeruginosa, PAO1, read-out: MIC, Sensititre
Procedure: as §1

[5] = tested on: PAO1 mutant MIN4_RW01_1, pmrB(R429H); test: MIC, Sensititre custom plate; type: cell-based; conditions: Pseudomonas aeruginosa, PAO1, read-out: MIC, Sensititre
Procedure: as §1

[6] = tested on: PAO1 mutant MIN8_1, nalD(R3C), pilM(Q62X); test: MIC, Sensititre custom plate; type: cell-based; conditions: Pseudomonas aeruginosa, PAO1, read-out: MIC, Sensititre
Procedure: as §1

[7] = tested on: PAO1 mutant MIN4_RW01_3, pmrB(M292T); test: MIC, Sensititre custom plate; type: cell-based; conditions: Pseudomonas aeruginosa, PAO1, read-out: MIC, Sensititre
Procedure: as §1

[8] = tested on: PAO1 mutant MIN16_3, nfxB(nt79∆14), pilB(N349K); test: MIC, Sensititre custom plate; type: cell-based; conditions: Pseudomonas aeruginosa, PAO1, read-out: MIC, Sensititre
Procedure: as §1

P. aeruginosa PAO1, WT = test: MIC, Sensititre custom plate; type: cell-based; conditions: Pseudomonas aeruginosa, PAO1, read-out: MIC, Sensititre
Procedure: as §1

[9] = tested on: PAO1 mutant MIN2_RW01_3, parS(V152A); test: MIC, Sensititre custom plate; type: cell-based; conditions: Pseudomonas aeruginosa, PAO1, read-out: MIC, Sensititre
Procedure: as §1

[10] = tested on: PAO1 mutant MIN32_1, mexR(R63H), pilB(N349K), PA0646(V316G); test: MIC, Sensititre custom plate; type: cell-based; conditions: Pseudomonas aeruginosa, PAO1, read-out: MIC, Sensititre
Procedure: as §1

[11] = tested on: PAO1 mutant MIN2_RW01_2, pmrB(M292T); test: MIC, Sensititre custom plate; type: cell-based; conditions: Pseudomonas aeruginosa, PAO1, read-out: MIC, Sensititre
Procedure: as §1

[12] = tested on: PAO1 mutant MIN2_RW01_1, pmrB(V215L); test: MIC, Sensititre custom plate; type: cell-based; conditions: Pseudomonas aeruginosa, PAO1, read-out: MIC, Sensititre
Procedure: as §1

[13] = tested on: PAO1 mutant MIN16_1, nalD(T43P); test: MIC, Sensititre custom plate; type: cell-based; conditions: Pseudomonas aeruginosa, PAO1, read-out: MIC, Sensititre
Procedure: as §1

[14] = tested on: PAO1 mutant MIN16_4, nalC(T50P), pilM(Q62X); test: MIC, Sensititre custom plate; type: cell-based; conditions: Pseudomonas aeruginosa, PAO1, read-out: MIC, Sensititre
Procedure: as §1

[15] = tested on: PAO1 mutant MIN8_4, pilZ(nt18InsT); test: MIC, Sensititre custom plate; type: cell-based; conditions: Pseudomonas aeruginosa, PAO1, read-out: MIC, Sensititre
Procedure: as §1

[16] = tested on: PAO1 mutant MIN1_RW01_1, pmrB(Y98N); test: MIC, Sensititre custom plate; type: cell-based; conditions: Pseudomonas aeruginosa, PAO1, read-out: MIC, Sensititre
Procedure: as §1

[17] = tested on: PAO1 mutant MIN16_2, nalC(aa9∆4), pilQ(nt46∆1); test: MIC, Sensititre custom plate; type: cell-based; conditions: Pseudomonas aeruginosa, PAO1, read-out: MIC, Sensititre
Procedure: as §1

[18] = tested on: PAO1 mutant MIN1_RW01_2, mexR(G58E), pilB(G326D), hutC(Y181X); test: MIC, Sensititre custom plate; type: cell-based; conditions: Pseudomonas aeruginosa, PAO1, read-out: MIC, Sensititre
Procedure: as §1

[19] = tested on: PAO1 mutant MIN1_RW01_3, pmrB(V215L); test: MIC, Sensititre custom plate; type: cell-based; conditions: Pseudomonas aeruginosa, PAO1, read-out: MIC, Sensititre
Procedure: as §1

[20] = tested on: PAO1 mutant MIN4_RW01_2, pmrB(F124S); test: microbe, parasite or virus in culture; type: cell-based; conditions: Pseudomonas aeruginosa, PAO1, read-out: MIC, Sensititre
Procedure: as §1

[21] = tested on: PAO1 mutant MIN1_RW01_4, pmrB(F124L); test: microbe, parasite or virus in culture; type: cell-based; conditions: Pseudomonas aeruginosa, PAO1, read-out: MIC, Sensititre
Procedure: as §1

P. aeruginosa 125A = test: MIC, CLSI broth microdilution in BD Phoenix AST Broth; type: cell-based, Pseudomonas aeruginosa; conditions: Pseudomonas aeruginosa; strain 125A; agent alone; 37°C, 18–22 h; three biological replicates
Procedure: (§2) MIC for RW01 was also tested.
(§3) FIC of RW01 (FICRW01)=MIC of RW01 in combination/MIC of RW01 alone,FIC of antibiotic (FICATB)=MIC of ATB in combination/MIC of ATB alone,FICI=FICRW01 +FICATB.
(§4) FICI was interpreted as follows: synergistic effect if FICI is ≤0.5; additive effect if 0.5 < FICI ≤ 1.0; indifferent effect if 1.0 < FICI ≤ 2.0; and finally, antagonistic effect if FICI is >2.0. The average FICI considering the antibiotic MIC (no growth in any of the replicates) at different concentrations of RW01 was calculated ([28]).

P. aeruginosa PAOUW = test: as above; type: cell-based, Pseudomonas aeruginosa; conditions: Pseudomonas aeruginosa, strain PAOUW; agent alone; 37°C, 18–22 h; three biological replicates; read-out: MIC
Procedure: as §2, §3, §4

P. aeruginosa PAO1 = test: as above; type: cell-based, Pseudomonas aeruginosa; conditions: Pseudomonas aeruginosa, PAO1, strain PAO1; agent alone; 37°C, 18–22 h; three biological replicates; read-out: MIC
Procedure: as §2, §3, §4

P. aeruginosa PAOUW∆oprF = test: as above; type: cell-based, Pseudomonas aeruginosa; conditions: Pseudomonas aeruginosa, strain PAOUWΔoprF; agent alone; 37°C, 18–22 h; three biological replicates
Procedure: as §2, §3, §4

P. aeruginosa PAOΔoprM = test: as above; type: cell-based, Pseudomonas aeruginosa; conditions: Pseudomonas aeruginosa
Procedure: as §2, §3, §4

P. aeruginosa 41A = test: as above; type: cell-based, Pseudomonas aeruginosa; conditions: Pseudomonas aeruginosa; strain 41A; agent alone; 37°C, 18–22 h; three biological replicates
Procedure: as §2, §3, §4

P. aeruginosa 41B = test: as above; type: cell-based, Pseudomonas aeruginosa; conditions: Pseudomonas aeruginosa; strain 41B; agent alone; 37°C, 18–22 h; three biological replicates
Procedure: as §2, §3, §4

P. aeruginosa PAOΔmexR = test: as above; type: cell-based, Pseudomonas aeruginosa
Procedure: as §2, §3, §4

P. aeruginosa 125B = test: as above; type: cell-based, Pseudomonas aeruginosa; conditions: Pseudomonas aeruginosa; strain 125B; agent alone; 37°C, 18–22 h; three biological replicates
Procedure: as §2, §3, §4

P. aeruginosa PAOΔmexZ = test: as above; type: cell-based, Pseudomonas aeruginosa; conditions: Pseudomonas aeruginosa, strain PAOΔmexZ; agent alone; 37°C, 18–22 h; three biological replicates
Procedure: as §2, §3, §4

| Structure (SMILES) | MIC [1] [µg/mL] | MIC [2] [µg/mL] | MIC [3] [µg/mL] | MIC [4] [µg/mL] | MIC [5] [µg/mL] | MIC [6] [µg/mL] | MIC [7] [µg/mL] | MIC [8] [µg/mL] | MIC (P. aeruginosa PAO1, WT) [µg/mL] | MIC [9] [µg/mL] | MIC [10] [µg/mL] | MIC [11] [µg/mL] | MIC [13] [µg/mL] | MIC [14] [µg/mL] | MIC [15] [µg/mL] | MIC [16] [µg/mL] | MIC [17] [µg/mL] | MIC [18] [µg/mL] | MIC [19] [µg/mL] | MIC [20] [µg/mL] | other results |
| --- | --- | --- | --- | --- | --- | --- | --- | --- | --- | --- | --- | --- | --- | --- | --- | --- | --- | --- | --- | --- | --- |
| NCC[C@H](O)C(=O)N[C@@H]1C[C@H](N)[C@@H](O[C@H]2O[C@H](CN)[C@@H](O)[C@H](O)[C@H]2O)[C@H](O)[C@H]1O[C@H]1O[C@H](CO)[C@@H](O)[C@H](N)[C@H]1O [AMI, amikacin] | ≤ 2 | ≤ 2 | 4 (≈ 6.83 µM) | 4 (≈ 6.83 µM) | 2 to 4 (≈ 3.42 to 6.83 µM) | ≤ 2 | 4 (≈ 6.83 µM) | ≤ 2 | ≤ 2 | 8 (≈ 13.7 µM) | ≤ 2 | 4 (≈ 6.83 µM) | 4 (≈ 6.83 µM) | ≤ 2 | ≤ 2 | 4 (≈ 6.83 µM) | ≤ 2 | ≤ 2 | 4 (≈ 6.83 µM) | 4 (≈ 6.83 µM) | MIC [12]: 4 µg/mL (≈ 6.83 µM); MIC [21]: ≤ 2 µg/mL |
| C[C@H]1[C@H](NC(=O)/C(=N\OC(C)(C)C(=O)O)c2csc(N)n2)C(=O)N1S(=O)(=O)O [Aztreonam, aztreonam] | 16 (≈ 36.7 µM) |  | ≤ 2 |  | 16 (≈ 36.7 µM) |  | ≤ 2 | 2 to 4 (≈ 4.59 to 9.19 µM) | 2 to 4 (≈ 4.59 to 9.19 µM) | 4 (≈ 9.19 µM) | 16 (≈ 36.7 µM) | 4 (≈ 9.19 µM) | 16 (≈ 36.7 µM) | 16 (≈ 36.7 µM) | 16 (≈ 36.7 µM) | ≤ 2 | 8 to 16 (≈ 18.4 to 36.7 µM) | 16 (≈ 36.7 µM) | ≤ 2 | ≤ 2 | MIC [12]: 4 to 8 µg/mL (≈ 9.19 to 18.4 µM); MIC (P. aeruginosa 125A): 8 µg/mL; MIC (P. aeruginosa PAOUW): 2 µg/mL; MIC (P. aeruginosa PAO1): 8 µg/mL; MIC (P. aeruginosa PAOUW∆oprF): 8 µg/mL; MIC (P. aeruginosa PAOΔoprM): 0.5 µg/mL; MIC (P. aeruginosa 41A): 8 µg/mL; MIC (P. aeruginosa 41B): 8 µg/mL; MIC (P. aeruginosa PAOΔmexR; Pseudomonas aeruginosa): 4 µg/mL; MIC (P. aeruginosa 125B): 8 µg/mL; MIC (P. aeruginosa PAOΔmexZ): 8 µg/mL |
| O=C(O)c1cn(C2CC2)c2cc(N3CCNCC3)c(F)cc2c1=O [CIP, ciprofloxacin] | 0.5 (≈ 1.51 µM) |  |  | 0.5 to 1 (≈ 1.51 to 3.02 µM) | 0.5 (≈ 1.51 µM) |  |  | 4 (≈ 12.1 µM) |  | 0.5 (≈ 1.51 µM) | 0.5 (≈ 1.51 µM) |  |  | 0.5 (≈ 1.51 µM) | 0.5 (≈ 1.51 µM) |  |  | 0.5 (≈ 1.51 µM) |  |  |  |
| CO/N=C(\C(=O)N[C@@H]1C(=O)N2C(C(=O)[O-])=C(C[N+]3(C)CCCC3)CS[C@H]12)c1csc(N)n1 [Cefepime, cefepime] | 4 (≈ 8.32 µM) | 4 (≈ 8.32 µM) | ≤ 1 | 4 (≈ 8.32 µM) | 4 to 8 (≈ 8.32 to 16.6 µM) | 4 (≈ 8.32 µM) | ≤ 1 | 4 (≈ 8.32 µM) | ≤ 1 | 4 (≈ 8.32 µM) | 4 (≈ 8.32 µM) | 4 (≈ 8.32 µM) | 4 (≈ 8.32 µM) | 4 (≈ 8.32 µM) | 4 (≈ 8.32 µM) | ≤ 1 | 4 (≈ 8.32 µM) | 4 (≈ 8.32 µM) | ≤ 1 | ≤ 1 | MIC (P. aeruginosa 125A): 4 µg/mL; MIC (P. aeruginosa PAOUW): 4 µg/mL; MIC (P. aeruginosa PAO1): 2 µg/mL; MIC (P. aeruginosa PAOUW∆oprF): 0.5 µg/mL; MIC (P. aeruginosa PAOΔoprM): 1 µg/mL; MIC (P. aeruginosa 41A): 8 µg/mL; MIC (P. aeruginosa 41B): 8 µg/mL; Antibiotic MIC + RW01 100 mg/L (P. aeruginosa PAOΔmexR; strain PAOΔmexR, MIC of the antibiotic with fixed 100 mg/L RW01): 0.5 µg/mL; Potentiation (fold) (P. aeruginosa PAOΔmexR; strain PAOΔmexR, antibiotic MIC alone vs with RW01 100 mg/L): ≥ 8 fold; MIC (P. aeruginosa 125B): 4 µg/mL; MIC (P. aeruginosa PAOΔmexZ): 2 µg/mL |
